From patent US7411076B2, “Coumarin derivative” (Institute of Medicinal Molecular Design, Inc., priority 2002, dated 2008)

System: Jurkat cells
Experiment: Jurkat cell proliferation, compound alone or in combination with bleomycin, living cells counted by the MTS method
Assay type: cell-based
Settings: 36 hours; for Activity (enhancement of the inhibitory effect of bleomycin on cell proliferation): Jurkat cells, combined with bleomycin 5 μg/ml or 10 μg/ml, survival rate vs DMSO control
Procedure: By using these compounds, effects on proliferation of Jurkat cells by sole administration and inhibitory effects on cell proliferation by administration in combination with bleomycin were examined. Materials and methods are as follows. Jurkat cells obtained from Dainippon Pharmaceutical Co. Ltd. were inoculated at about 10,000 cells per well in a 96 well culture plate, and incubated in 10% bovine fetal serum (Irvine Scientific) supplemented with RPMI1640(ICN) medium in 5% CO2 incubator at 37° C. […] 36 hours after the incubation, the number of living cells was counted by the MTS method.
More specifically, 20 μl of CellTiter96™ AQueous One Solution (Promega) was added per one well, and after the cells were incubated for additional one hour, an absorbance at 490 nm was measured by using a microplate reader. The same culture added with DMSO as a solvent at final concentration of 0.25% was used as a control. The number of cells in the control was considered as 100% survival rate, and for each compound, survival rates by sole administration or a combined administration were calculated. […] In the table, ++ indicates observation of remarkable enhancement, + indicates moderated enhancement, and ± indicates weak enhancement.

Row | Compound | Activity (enhancement of the inhibitory effect of bleomycin on cell proliferation) | decrease in the survival rates of the Jurkat cells (bleomycin alone at 5 μg/ml or 10 μg/ml, DMSO control = 100% survival)
1 | O=C(Nc1cc2ccc(O)cc2oc1=O)c1ccc(Cl)cc1 [Compound 5, 4-chloro-N-(7-hydroxy-2-oxo-2H-1-benzopyran-3-yl)benzamide] | ± | 
2 | O=C(Nc1cc2ccc(O)cc2oc1=O)c1ccc(C(F)(F)F)cc1 [Compound 13, N-(7-hydroxy-2-oxo-2H-1-benzopyran-3-yl)-4-(trifluoromethyl)benzamide] | + | 
3 | O=C(Nc1cc2ccc(O)cc2oc1=O)c1ccc(-c2ccccc2)cc1 [Compound 14, N-(7-hydroxy-2-oxo-2H-1-benzopyran-3-yl)-[1,1′-biphenyl]-4-carboxamide] | ++ | 
4 | O=C(Nc1cc2ccc(O)cc2oc1=O)c1ccc([N+](=O)[O-])cc1 [Compound 20, N-(7-hydroxy-2-oxo-2H-1-benzopyran-3-yl)-4-nitrobenzamide] | ± | 
5 | N#Cc1ccc(C(=O)Nc2cc3ccc(O)cc3oc2=O)cc1 [Compound 22, 4-cyano-N-(7-hydroxy-2-oxo-2H-1-benzopyran-3-yl)benzamide] | + | 
6 | O=C(Nc1cc2ccc(O)cc2oc1=O)c1cccc(Cl)c1 [Compound 3, 3-chloro-N-(7-hydroxy-2-oxo-2H-1-benzopyran-3-yl)benzamide] | + | 
7 | O=C(Cc1ccccc1)Nc1cc2ccc(O)cc2oc1=O [Compound 30, N-(7-hydroxy-2-oxo-2H-1-benzopyran-3-yl)benzeneacetamide] | + | 
8 | O=C(Nc1cc2ccc(O)cc2oc1=O)c1ccc2ccccc2c1 [Compound 24, N-(7-hydroxy-2-oxo-2H-1-benzopyran-3-yl)-2-naphthalenecarboxamide] | ± | 
9 | O=C(Nc1cc2ccc(O)cc2oc1=O)c1ccccc1 [Compound 1, N-(7-hydroxy-2-oxo-2H-1-benzopyran-3-yl)benzamide] | ± | 
10 | bleomycin [reference compound] |  | 5 to 10%
11 | O=C(Nc1cc2ccc(O)cc2oc1=O)c1cccnc1Cl [Compound 27, 2-chloro-N-(7-hydroxy-2-oxo-2H-1-benzopyran-3-yl)-3-pyridinecarboxamide] | ± | 
12 | O=C(Nc1cc2ccc(O)cc2oc1=O)c1ccco1 [Compound 25, N-(7-hydroxy-2-oxo-2H-1-benzopyran-3-yl)-2-furancarboxamide] | ± | 
13 | O=C(Nc1cc2ccc(O)cc2oc1=O)c1cccc2ccccc12 [Compound 23, N-(7-hydroxy-2-oxo-2H-1-benzopyran-3-yl)-1-naphthalenecarboxamide] | + | 
14 | O=C(Nc1cc2ccc(O)cc2oc1=O)c1cccc(Br)c1 [Compound 4, 3-bromo-N-(7-hydroxy-2-oxo-2H-1-benzopyran-3-yl)benzamide] | + | 
15 | COc1ccccc1C(=O)Nc1cc2ccc(O)cc2oc1=O [Compound 15, N-(7-hydroxy-2-oxo-2H-1-benzopyran-3-yl)-2-methoxybenzamide] | ± | 
16 | O=C(Nc1cc2ccc(O)cc2oc1=O)c1ccccc1Cl [Compound 2, 2-chloro-N-(7-hydroxy-2-oxo-2H-1-benzopyran-3-yl)benzamide] | + | 
17 | O=C(Nc1cc2ccc(O)cc2oc1=O)c1ccc2c(c1)OCO2 [Compound 28, N-(7-hydroxy-2-oxo-2H-1-benzopyran-3-yl)-1,3-benzodioxole-5-carboxamide] | ± | 
18 | CC(C)(C)C(=O)Nc1cc2ccc(O)cc2oc1=O [Compound 29, N-(7-hydroxy-2-oxo-2H-1-benzopyran-3-yl)-2,2-dimethylpropanamide] | ± | 
19 | O=C(Nc1cc2ccc(O)cc2oc1=O)c1cccs1 [Compound 26, N-(7-hydroxy-2-oxo-2H-1-benzopyran-3-yl)-2-thiophenecarboxamide] | ± | 
20 | COC(=O)c1ccc(C(=O)Nc2cc3ccc(O)cc3oc2=O)cc1 [Compound 21, 4-[[N-(7-hydroxy-2-oxo-2H-1-benzopyran-3-yl)amino]carbonyl]benzoic acid methyl ester] | ± | 
21 | Cc1ccccc1C(=O)Nc1cc2ccc(O)cc2oc1=O [Compound 8, N-(7-hydroxy-2-oxo-2H-1-benzopyran-3-yl)-2-methylbenzamide] | + | 
22 | O=C(Nc1cc2ccc(O)cc2oc1=O)c1ccc(F)cc1 [Compound 6, 4-fluoro-N-(7-hydroxy-2-oxo-2H-1-benzopyran-3-yl)benzamide] | ± | 
23 | COc1cccc(C(=O)Nc2cc3ccc(O)cc3oc2=O)c1 [Compound 16, N-(7-hydroxy-2-oxo-2H-1-benzopyran-3-yl)-3-methoxybenzamide] | ± | 
